Several values for one entry are separate records, joined by “and”; a condition that tells them apart may be missing. Equal entries are not always repeated. Where two headings read alike, the source gives them in different places.
Key:
HIV-1 CNE68 = assay type: cell-based; details: Table 7; CNE68, clade BC, R5
HIV-1 55815.EC3 = assay: TZM-bl cell-based neutralization assay; details: Table 6; 55815.EC3, clade AG, R5
HIV-1 CM240.EC1 = assay: TZM-bl cell-based neutralization assay; details: Table 6; CM240.EC1, clade AE, R5
HIV-1 CNE4 = assay type: cell-based; details: Table 7; CNE4, clade B′, R5
HIV-1 CH120 = assay type: cell-based; details: Table 7; CH120, clade BC, R5
HIV-1 N1 1046.e3 PV = assay: TZM-bl cell-based neutralization assay; details: Table 6, clade AE, R5
HIV-1 AD8 = assay: Pseudotyped HIV-1 neutralization (HOS-CD4-CCR5 cells); assay type: cell-based; details: Table 3; AD8, clade B, R5
Experimental: (§1) To determine the potency and breadth of HIV-1 neutralization by the D1 mutants, viruses pseudotyped with Envs from HIV-1 isolates representing clades A-E and using either CCR5 (R5) or CXCR4 (X4) or both (R5X4) as a coreceptor were included. Pseudoviruses were derived from 293T cells and a neutralization assay was performed in duplicate using HOS-CD4-CCR5 (for all R5 and dual tropic viruses) or HOS-CD4-CXCR4 cell lines as described in Chen et al., Proc. Natl. Acad. Sci. USA, 105: 17121-17126 (2008)). Luminescence was measured 48 hours post-infection and the percentage neutralization was calculated by the following formula: (1—average RLU of inhibitor-containing wells/average RLU or virus-only wells)×100.

HIV-1 Z2Z6 = assay: as above; assay type: cell-based; details: Table 3; Z2Z6, clade D, R5
Experimental: as §1

HIV-1 JRCSF = assay: as above; assay type: cell-based; details: Table 3, clade B, R5
Experimental: as §1

HIV-1 GXC = assay: as above; assay type: cell-based; details: Table 3, clade C, R5
Experimental: as §1

HIV-1 92UG037.8 = assay: as above; assay type: cell-based; details: Table 3; 92UG037.8, clade A, R5
Experimental: as §1

HIV-1 CM243 = assay: as above; assay type: cell-based; details: Table 3; CM243, clade E, R5
Experimental: as §1

HIV-1 Bal = assay: as above; assay type: cell-based; details: R5
Experimental: as §1

HIV-1 R2 = assay: as above; assay type: cell-based; details: Table 3; R2, clade B, R5
Experimental: as §1

HIV-1 89.6 = assay: as above; assay type: cell-based; details: Table 3; 89.6, clade B, R5X4
Experimental: as §1

HIV-1 CNE64 = assay type: cell-based; details: Table 7; CNE64, clade B′, R5
HIV-1 CNE55 = assay type: cell-based; details: Table 7; CNE55, clade AE, R5
[1] = test system: HIV-1 primary isolates Bal and JRFL; assay type: cell-based; details: in contrast to D1D2
HIV-1 BZ167.ec9 = assay: TZM-bl cell-based neutralization assay; details: Table 6; BZ167.ec9, clade B, X4
HIV-1 CH119 = assay type: cell-based; details: Table 7; CH119, clade BC, R5
HIV-1 AE20 = assay type: cell-based; details: Table 7; AE20, clade AE, R5
HIV-1 IIIB = assay: Pseudotyped HIV-1 neutralization (HOS-CD4-CXCR4 cells); assay type: cell-based; details: Table 3, clade B, X4
Experimental: as §1

HIV-1 NL4-3 = assay: as above; assay type: cell-based; details: Table 3; NL4-3, clade B, X4
Experimental: as §1

[2] = Solubility of fusion proteins in PBS (concentration, centrifugation); assay type: physicochemical
Experimental: To evaluate the potential for further development as drugs, several drug-related properties, including solubility, stability, and aggregation propensity were tested.

HIV-1 CH110 = assay type: cell-based; details: Table 7; CH110, clade BC, R5
HIV-1 57128.VRC18 = assay: TZM-bl cell-based neutralization assay; details: Table 6; 57128.VRC18, clade D, R5
[3] = test system: 41 HIV-1 isolates predominantly circulating in China; assay type: cell-based; details: for IC50 / IC90: Table 7, all viruses, >750 assigned 800, >250 assigned 300, >100 assigned 150, >28 assigned 30
HIV-1 Env JRFL = assay: HIV-1 Env-mediated cell-cell fusion; assay type: cell-based; details: Table 5, clade B, R5
[4] = read-out: IC50, arithmetic mean
[5] = read-out: IC90, arithmetic mean

4Dm2m: bispecific multivalent fusion protein of mD1.22 and m36.4; two SEQ ID NO: 20 and two SEQ ID NO: 21 chains
IC50 (HIV-1 CNE68): 0.11 nM
IC90 (HIV-1 CNE68): 0.78 nM
IC50 (HIV-1 55815.EC3): 0.084 nM
IC90 (HIV-1 55815.EC3): 0.61 nM
IC50 (HIV-1 CM240.EC1): 0.45 nM
IC90 (HIV-1 CM240.EC1): 3.7 nM
IC50 (HIV-1 CNE4): 0.11 nM
IC90 (HIV-1 CNE4): 2.4 nM
IC50 (HIV-1 CH120): 0.33 nM
IC90 (HIV-1 CH120): 6.6 nM
IC90 (HIV-1 N1 1046.e3 PV): 27 nM
IC50 (HIV-1 AD8): 0.13 ± 0.01 nM
IC90 (HIV-1 AD8): 0.74 ± 0.06 nM
IC50 (HIV-1 Z2Z6): 0.14 ± 0.04 nM
IC90 (HIV-1 Z2Z6): 1.1 ± 0.1 nM
IC50 (HIV-1 JRCSF): 0.29 ± 0.18 nM
IC90 (HIV-1 JRCSF): 3 ± 2.9 nM
IC50 (HIV-1 GXC): 0.61 ± 0.36 nM
IC90 (HIV-1 GXC): 4 nM
IC50 (HIV-1 92UG037.8): 0.051 ± 0.001 nM
IC90 (HIV-1 92UG037.8): 0.45 ± 0.01 nM
IC50 (HIV-1 CM243): 0.29 ± 0.11 nM
IC90 (HIV-1 CM243): 1.2 ± 0.6 nM
IC50 (HIV-1 Bal; Table 2, clade B): 0.12 nM
IC90 (HIV-1 Bal; Table 2, clade B): 0.36 nM
IC50 (HIV-1 Bal; Table 3, clade B): 0.15 ± 0.04 nM
IC90 (HIV-1 Bal; Table 3, clade B): 0.5 ± 0.07 nM
IC50 (HIV-1 R2): 0.028 ± 0.011 nM
IC90 (HIV-1 R2): 0.43 ± 0.18 nM
IC50 (HIV-1 89.6): < 0.021 nM
IC90 (HIV-1 89.6): < 0.021 nM
IC50 (HIV-1 CNE64): 0.56 nM
IC50 (HIV-1 CNE55): 0.45 nM
IC90 (HIV-1 CNE55): 10 nM
enhancement of HIV-1 infectivity at low concentrations [1]: not enhance HIV-1 infectivity
IC50 (HIV-1 BZ167.ec9): 0.077 nM
IC90 (HIV-1 BZ167.ec9): 0.5 nM
IC90 (HIV-1 CH119): 3.4 nM
IC50 (HIV-1 AE20): 0.72 nM
IC50 (HIV-1 IIIB): 0.037 ± 0.001 nM
IC90 (HIV-1 IIIB): 0.1 ± 0.01 nM
IC50 (HIV-1 NL4-3): 0.094 ± 0.002 nM
IC90 (HIV-1 NL4-3): 0.15 ± 0.02 nM
precipitation on storage ([2]; 4° C. for 2 weeks): no additional precipitation was observed
concentration reached in PBS without visible precipitation after high-speed centrifugation ([2]; PBS): 25000 µg/mL
IC50 (HIV-1 CH110): 0.11 nM
IC90 (HIV-1 CH110): 0.83 nM
IC50 (HIV-1 57128.VRC18): 0.4 nM
IC90 (HIV-1 57128.VRC18): 2.8 nM
IC50 geometric mean lower than that of C34 ([3]; 41 isolates, P<0.001): ~16 fold
IC50 geometric mean lower than that of CD4-Ig ([3]; 41 isolates, P<0.001): ~200 fold
IC50 geometric mean lower than that of T20 ([3]; 41 isolates, P=0.002): about 50 fold
IC50 [3, 4]: 0.34 nM
IC50 ([3]; read-out: IC50, geometric mean): ~0.2 nM and 0.22 nM
IC90 [3, 5]: 6.2 nM
IC90 ([3]; read-out: IC90, geometric mean): 3.5 nM
IC50 (HIV-1 Env JRFL): 3.6 ± 0.2 nM
IC90 (HIV-1 Env JRFL): 8.8 ± 0.4 nM

enfuvirtide
IC50 (HIV-1 CNE68): 32 nM
IC90 (HIV-1 CNE68): 321 nM
IC50 (HIV-1 CNE4): 1.7 nM
IC90 (HIV-1 CNE4): 14 nM
IC50 (HIV-1 CH120): 11 nM
IC90 (HIV-1 CH120): 443 nM
IC50 (HIV-1 CNE64): 1.9 nM
IC90 (HIV-1 CNE64): 16 nM
IC50 (HIV-1 CNE55): 26 nM
IC90 (HIV-1 CNE55): 549 nM
IC50 (HIV-1 CH119): 2 nM
IC90 (HIV-1 CH119): 25 nM
IC50 (HIV-1 AE20): 212 nM
IC90 (HIV-1 AE20): 572 nM
IC50 (HIV-1 CH110): 4.3 nM
IC90 (HIV-1 CH110): 262 nM
IC50 [3, 4]: 37 nM
IC50 ([3]; read-out: IC50, geometric mean): 11 nM
IC90 [3, 5]: 277 nM
IC90 ([3]; read-out: IC90, geometric mean): 123 nM

Source: US20160039904A1, “STABILIZED SINGLE HUMAN CD4 DOMAINS AND FUSION PROTEINS” (priority 2013, published 2016)
